Entries after “also recorded” stand apart in the source; their conditions may differ.
Assays:
[1] = tested on: Cobblestone Area Forming Cell (CAFC) subsets in bone marrow; test: Cobblestone Area Forming Cell (CAFC) content of bone marrow after in vivo treatment; parameters: species or system mice
Procedure: FIG. 8 is a depiction of CAFC content per hind limb expressed as percent of untreated (saline injected) control following 4×30 mg/kg tirapazamine (TPZ) 2×10 mg/kg Busulfex (BX) or 4 Gy gamma-irradiation. Data represents the mean of bone marrow cell samples pooled from 3-4 individual mice with 95% confidence limits.
5-FU was administered i.p. to B6 recipients at a single dose of 150 mg/kg. At 2 days, the femoral and tibial bone marrow was harvested, pooled from mice and plated for estimate of CAFC content per hind limb. Error bars represent 95% confidence intervals.
Mice: C57BL/6J male mice (with Ly 5.2 marker) obtained from Jackson Laboratories were used for most of the experiments proposed. Mice were maintained in a specific pathogen-free microisolator environment. For some in vivo repopulation assays, B6.5JL-Ptprc^a Pep3^b/BoyJ congenic mice (with Ly5.1 marker) obtained from Jackson Laboratories were used as donors. Bone marrow, thymus, harvest: Bone marrow cells were harvested from mice by crushing the tibias and femurs from the hind limbs in HBSS containing 2% FBS and […] HEPES buffer (HBSS+). Bone marrow cells, thymocytes and splenocytes were passed through 21 gauge needles to get single cell suspensions. The cellularity of bone marrow and thymus was measured by counting total live cells (using trypan blue) and total WBCs (using crystal violet in 3% acetic acid) on a hemocytometer. Measurement of Hoechst perfusion in vivo in mice: The Hoechst dye perfusion in mice was done according to methods previously described in the literature (Durand et al., 1990; Olive et al., 2000; Olive et al., 2002). Briefly, C57BL/6J mice were injected i.v. via the retro-orbital sinus under isoflurane anesthesia with two doses (0.8 mg/mouse) of Hoechst dye (Sigma) at 10 and 5 min before bone marrow harvesting, a period determined to be insufficient for active dye exclusion in vitro. Tibias and femurs were placed immediately on ice, crushed in a pre-cooled mortar and pestle, filtered and suspended in cold HBSS+. Thymus was harvested and thymocyte cell suspension made by passing the cells through 21 gauge needle. The dual emission wavelength of Hoechst fluorescence in bone marrow and thymus was assessed on a logarithmic scale using flow cytometry with exclusion of propidium iodide positive cells. Pimonidazole binding: The detection of hypoxic cells in bone marrow and thymus was done by pimonidazole binding using methods described by Olive et al. (Olive et al., 2000; Olive et al., 2002). Briefly, the mice were injected i.p. with pimonudazole hydrochloride (Chemicon International) at 120 mg/kg dose and the bone marrow as well as thymus were harvested 3 hrs post-injection. […] The fluorescent intensity for staining was measured using flow cytometry. […]

HSCs = conditions: single dose; Harrison and Lerner, 1991; cited from earlier work
bone marrow = test: Hoechst dye perfusion gradient in bone marrow after 5-FU; format: in vivo, mice; conditions: 1 to 6 days after 5-FU; Hoechst dye i.v. 0.8 mg at 5 and 10 min; FIG. 12
Procedure: At different times after 5-FU, Hoechst dye was injected i.v. (0.8 mg at 5 and 10 min) and the bone marrow analyzed for intensity of Hoechst uptake. The plotted graph gives the red fluorescence intensity for cells at the lower 1% level to show how the Hoechst gradient is shortened at 1 to 6 days after 5-FU and provides evidence for improved oxygenation of the cells that remain after treatment.
(§1) Mice: C57BL/6J male mice (with Ly 5.2 marker) obtained from Jackson Laboratories were used for most of the experiments proposed. Mice were maintained in a specific pathogen-free microisolator environment. […] The cellularity of bone marrow and thymus was measured by counting total live cells (using trypan blue) and total WBCs (using crystal violet in 3% acetic acid) on a hemocytometer. […] Briefly, C57BL/6J mice were injected i.v. via the retro-orbital sinus under isoflurane anesthesia with two doses (0.8 mg/mouse) of Hoechst dye (Sigma) at 10 and 5 min before bone marrow harvesting, a period determined to be insufficient for active dye exclusion in vitro. […] The dual emission wavelength of Hoechst fluorescence in bone marrow and thymus was assessed on a logarithmic scale using flow cytometry with exclusion of propidium iodide positive cells. […] The fluorescent intensity for staining was measured using flow cytometry. […]

SP cells in bone marrow = test: Side Population (SP) cells in bone marrow after 5-FU; format: in vivo, mice; conditions: different times after 5-FU; FIG. 13
Procedure: At different times after 5-FU, bone marrow was harvested, nucleated cells counted and incubated in Hoechst dye for subsequent analysis on efficient (lower gate) and poor (higher gate) dye effluxing cells in the SP tail. While the percent of SP cells appeared to increase from day 1 to day 4, the cell yield continued to decrease and thus the actual number of SP cells per hind limb remained low.
as §1

## Nc1n[n+]([O-])c2ccccc2[n+]1[O-] [Tirapazamine, 1,2,4-benzotriazin-3-amine 1,4-dioxide]
[1]; TPZ 30 mg/kg i.p. daily over 4 days, bone marrow harvested 24 hours after last treatment, FIG. 8
  depletion of late- versus early-forming CAFC subsets (CAFC content per hind limb): higher depletion of late-versus early-forming CAFC subsets

## O=c1[nH]cc(F)c(=O)[nH]1 [5-FU, 5-fluorouracil]
[1]; 5-FU single dose 150 mg/kg i.p., bone marrow at 2 days, FIG. 11
  primitive late-forming CAFCs, bone marrow content: remain normal
[1]; 5-FU single dose 150 mg/kg i.p., bone marrow at 2 days, FIG. 11, 150 mg/kg
  early-forming CAFC subsets, bone marrow content: selectively depletes early-forming CAFCs; also recorded: marked depletion
[1]; after 5-FU
  number of functional HSCs: remains unaffected
HSCs
  sensitivity of bone marrow HSCs capable of long-term engraftment in irradiated recipients: resistant
Bone marrow
  Hoechst gradient in bone marrow (red fluorescence intensity, lower 1% level): considerably shortened
SP cells in bone marrow
  percent and overall marrow content of SP cells: decreased; also recorded: dramatic decrease
